Measurements published in PubChem BioAssay AID248 (DTP/NCI, 2004).
Values joined by “and” are separate entries in the source; they are usually repeats but may differ in a detail not shown here. Equal entries are not always repeated. Inconclusive results and toxic doses are left out. Rule as the data show it: active = T/C of 150% or more; inactive = T/C below 125%.

Test system: L1210 leukemia ip in BDF1 mice, survival T/C
Experiment: NCI In Vivo Anticancer Drug Screen. Data for tumor model L1210 Leukemia (intraperitoneal) in B6D2F1 (BDF1) mice
Details: endpoint: mean survival time, higher = longer survival
Procedure, shortened: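 Transplanted-tumor mice were given test agent; controls received vehicle only. Survival readings from the two groups were divided (treated over control).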

[1] = dose: 100.0 mg/kg/injection, schedule: Q01DX009 (ip), vehicle: saline with Tween-80
[2] = dose: 200.0 mg/kg/injection, schedule: Q01DX009 (ip), vehicle: saline with Tween-80
[3] = dose: 400.0 mg/kg/injection, schedule: Q01DX009 (ip), vehicle: saline with Tween-80
[4] = dose: 100.0 mg/kg/injection, schedule: Q01DX001 (ip), vehicle: saline
[5] = dose: 200.0 mg/kg/injection, schedule: Q01DX001 (ip), vehicle: saline
[6] = dose: 400.0 mg/kg/injection, schedule: Q01DX001 (ip), vehicle: saline
[7] = dose: 100.0 mg/kg/injection, schedule: Q01DX001 (ip), vehicle: Klucel (hydroxypropylcellulose) (HPC)
[8] = dose: 200.0 mg/kg/injection, schedule: Q01DX001 (ip), vehicle: Klucel (hydroxypropylcellulose) (HPC)
[9] = dose: 400.0 mg/kg/injection, schedule: Q01DX001 (ip), vehicle: Klucel (hydroxypropylcellulose) (HPC)
[10] = dose: 100.0 mg/kg/injection, schedule: Q01DX001 (ip), vehicle: carboxymethylcellulose (CMC)
[11] = dose: 200.0 mg/kg/injection, schedule: Q01DX001 (ip), vehicle: carboxymethylcellulose (CMC)
[12] = dose: 400.0 mg/kg/injection, schedule: Q01DX001 (ip), vehicle: carboxymethylcellulose (CMC)
[13] = dose: 100.0 mg/kg/injection, schedule: Q04DX003 (ip), vehicle: Klucel (hydroxypropylcellulose) (HPC)
[14] = dose: 200.0 mg/kg/injection, schedule: Q04DX003 (ip), vehicle: Klucel (hydroxypropylcellulose) (HPC)
[15] = dose: 100.0 mg/kg/injection, schedule: Q04DX003 (ip), vehicle: saline
[16] = dose: 200.0 mg/kg/injection, schedule: Q04DX003 (ip), vehicle: saline
[17] = dose: 400.0 mg/kg/injection, schedule: Q04DX003 (ip), vehicle: saline

Measured: T/C

Brc1ccc([Si](c2ccccc2)(c2ccccc2)c2ccc(Br)cc2)cc1
inactive: [1] 101 % of control | [2] 93 % of control | [3] 89 % of control

O=C(OCCCCCCCOC(=O)c1ccc([N+](=O)[O-])cc1)c1ccc([N+](=O)[O-])cc1
inactive: dose: 100.0 mg/kg/injection, schedule: Q01DX001 (ip), vehicle: other 101 % of control | dose: 200.0 mg/kg/injection, schedule: Q01DX001 (ip), vehicle: other 96 % of control | dose: 400.0 mg/kg/injection, schedule: Q01DX001 (ip), vehicle: other 95 % of control

CCCC(=O)OC(OC(=O)CCC)c1ccco1
inactive: [4] 92 % of control | [5] 109 % of control | [6] 109 % of control

CC1(C)C=CN(c2ccccc2)C(=O)O1
inactive: dose: 100.0 mg/kg/injection, schedule: Q04DX002 (ip), vehicle: Klucel (hydroxypropylcellulose) (HPC) 94 % of control | dose: 200.0 mg/kg/injection, schedule: Q04DX002 (ip), vehicle: Klucel (hydroxypropylcellulose) (HPC) 98 % of control | dose: 400.0 mg/kg/injection, schedule: Q04DX002 (ip), vehicle: Klucel (hydroxypropylcellulose) (HPC) 98 % of control

CC(CC(C)(C)C)OS(=O)(=O)c1ccc(Br)cc1 (centres undefined)
inactive: dose: 100.0 mg/kg/injection, schedule: Q04DX003 (ip), vehicle: saline with Tween-80 98 % of control | dose: 200.0 mg/kg/injection, schedule: Q04DX003 (ip), vehicle: saline with Tween-80 101 % of control | dose: 400.0 mg/kg/injection, schedule: Q04DX003 (ip), vehicle: saline with Tween-80 92 % of control

Cc1cn(CCCCOC(=O)c2ccc([N+](=O)[O-])cc2)c(=O)[nH]c1=O
inactive: [7] 95 % of control | [8] 100 % of control | [9] 87 % of control

C/C=C(/C)c1ccccc1
inactive: [10] 95 % of control | [11] 95 % of control | [12] 95 % of control

CC(C)S.[Pb]
inactive: dose: 100.0 mg/kg/injection, schedule: Q04DX002 (ip), vehicle: gum acacia 100 % of control | dose: 200.0 mg/kg/injection, schedule: Q04DX002 (ip), vehicle: gum acacia 100 % of control | dose: 400.0 mg/kg/injection, schedule: Q04DX002 (ip), vehicle: gum acacia 89 % of control

[O-]/[N+](=C\c1cccc(Cl)c1)c1ccccc1
inactive: dose: 50.0 mg/kg/injection, schedule: Q01DX001 (ip), vehicle: saline 102 % of control | [4] 100 % of control | [13] 107 % of control | [5] 100 % of control | [14] 100 % of control | [6] 112 % of control

O=C(OC(=O)c1ccc([N+](=O)[O-])cc1)c1ccc([N+](=O)[O-])cc1
inactive: dose: 100.0 mg/kg/injection, schedule: Q01DX009 (sc), vehicle: olive oil, sesame oil, peanut oil 104 % of control | dose: 100.0 mg/kg/injection, schedule: Q04DX003 (sc), vehicle: olive oil, sesame oil, peanut oil 98 % of control | dose: 200.0 mg/kg/injection, schedule: Q01DX009 (sc), vehicle: olive oil, sesame oil, peanut oil 106 % of control | dose: 200.0 mg/kg/injection, schedule: Q04DX003 (sc), vehicle: olive oil, sesame oil, peanut oil 98 % of control | dose: 400.0 mg/kg/injection, schedule: Q01DX009 (sc), vehicle: olive oil, sesame oil, peanut oil 118 % of control | dose: 400.0 mg/kg/injection, schedule: Q04DX003 (sc), vehicle: olive oil, sesame oil, peanut oil 101 % of control

Cc1cnc(=S)[nH]c1N
inactive: dose: 50.0 mg/kg/injection, schedule: Q01DX009 (ip), vehicle: saline 99 % of control | dose: 100.0 mg/kg/injection, schedule: Q01DX009 (ip), vehicle: saline 95 % of control | [15] 101 % of control | dose: 200.0 mg/kg/injection, schedule: Q01DX009 (ip), vehicle: saline 99 % of control | [16] 105 % of control

O=[N+]([O-])c1ccc2c(c1)C(Br)c1ccccc1-2 (centres undefined)
inactive: dose: 100.0 mg/kg/injection, schedule: Q01DX009 (ip), vehicle: Klucel (hydroxypropylcellulose) (HPC) 89 % of control | [13] 95 % of control | dose: 200.0 mg/kg/injection, schedule: Q01DX009 (ip), vehicle: Klucel (hydroxypropylcellulose) (HPC) 94 % of control | [14] 92 % of control | dose: 400.0 mg/kg/injection, schedule: Q04DX003 (ip), vehicle: Klucel (hydroxypropylcellulose) (HPC) 94 % of control

CN(N)/C(N)=N/N
inactive: [15] 97 % of control | [16] 102 % of control | [17] 97 % of control

O=C(O)CC1Sc2ccccc2NC1=O (centres undefined)
inactive: [7] 105 % of control | [8] 94 % of control | [9] 105 % of control

CC(C)(C)NC(=O)NC1CCCCC1
inactive: dose: 100.0 mg/kg/injection, schedule: Q01DX001 (ip), vehicle: saline with Tween-80 95 % of control | [1] 94 % of control and 110 % of control | dose: 100.0 mg/kg/injection, schedule: Q04DX002 (ip), vehicle: saline with Tween-80 97 % of control and 100 % of control | [15] 101 % of control | dose: 200.0 mg/kg/injection, schedule: Q01DX001 (ip), vehicle: saline with Tween-80 98 % of control | [2] 100 % of control and 87 % of control | dose: 200.0 mg/kg/injection, schedule: Q04DX002 (ip), vehicle: saline with Tween-80 97 % of control | [16] 111 % of control | dose: 400.0 mg/kg/injection, schedule: Q01DX001 (ip), vehicle: saline with Tween-80 95 % of control | [3] 100 % of control and 115 % of control | dose: 400.0 mg/kg/injection, schedule: Q04DX002 (ip), vehicle: saline with Tween-80 94 % of control and 90 % of control | [17] 101 % of control

COc1ccc(/C=C/c2c3cc(OC)c(OC)cc3cc3c4cc(OC)c(OC)cc4cc[n+]23)cc1OC
inactive: [10] 93 % of control and 108 % of control | dose: 100.0 mg/kg/injection, schedule: Q04DX002 (ip), vehicle: carboxymethylcellulose (CMC) 96 % of control and 89 % of control | dose: 100.0 mg/kg/injection, schedule: Q04DX003 (ip), vehicle: carboxymethylcellulose (CMC) 97 % of control | [11] 97 % of control and 100 % of control | dose: 200.0 mg/kg/injection, schedule: Q04DX002 (ip), vehicle: carboxymethylcellulose (CMC) 100 % of control and 87 % of control | dose: 200.0 mg/kg/injection, schedule: Q04DX003 (ip), vehicle: carboxymethylcellulose (CMC) 92 % of control | [12] 102 % of control and 90 % of control | dose: 400.0 mg/kg/injection, schedule: Q04DX002 (ip), vehicle: carboxymethylcellulose (CMC) 86 % of control and 92 % of control | dose: 400.0 mg/kg/injection, schedule: Q04DX003 (ip), vehicle: carboxymethylcellulose (CMC) 101 % of control

O=C(Nc1ccccc1-c1ccc([N+](=O)[O-])cc1)c1ccc(Cl)c(Cl)c1
inactive: dose: 100.0 mg/kg/injection, schedule: Q04DX003 (ip), vehicle: water 93 % of control | dose: 200.0 mg/kg/injection, schedule: Q04DX003 (ip), vehicle: water 93 % of control | dose: 400.0 mg/kg/injection, schedule: Q04DX003 (ip), vehicle: water 93 % of control

CN1C=CC(=Cc2ccccc2)C=C1
inactive: dose: 12.5 mg/kg/injection, schedule: Q04DX002 (ip), vehicle: Klucel (hydroxypropylcellulose) (HPC) 90 % of control | dose: 25.0 mg/kg/injection, schedule: Q04DX002 (ip), vehicle: Klucel (hydroxypropylcellulose) (HPC) 107 % of control | dose: 50.0 mg/kg/injection, schedule: Q04DX002 (ip), vehicle: Klucel (hydroxypropylcellulose) (HPC) 107 % of control
